± gives the expanded uncertainty stated by the source.
How the values were obtained:
[1] = 100 kPa, Liquid; for viscosity: Concentric cylinders viscometry; for mass density: Vibrating tube method
[2] = xn = mol fraction of the nth substance listed; settings: 100 kPa, Liquid; for viscosity: Concentric cylinders viscometry; for mass density: Vibrating tube method

C[n+]1ccn(CCO)c1.F[B-](F)(F)F [1-(2-hydroxyethyl)-3-methylimidazolium tetrafluoroborate]
viscosity ([1]; 293.15 K): 153.6 ± 12 mPa·s
mass density ([1]; 293.15 K): 1362.4 ± 1.1 kg/m3
viscosity ([1]; 298.15 K): 115.1 ± 9.3 mPa·s
mass density ([1]; 298.15 K): 1358.7 ± 1.1 kg/m3
viscosity ([1]; 303.15 K): 87.98 ± 7.1 mPa·s
mass density ([1]; 303.15 K): 1354.8 ± 1.1 kg/m3
viscosity ([1]; 308.15 K): 68.59 ± 5.5 mPa·s
mass density ([1]; 308.15 K): 1351.2 ± 1.1 kg/m3
viscosity ([1]; 313.15 K): 54.81 ± 4.4 mPa·s
mass density ([1]; 313.15 K): 1347.4 ± 1.1 kg/m3
viscosity ([1]; 318.15 K): 44.44 ± 3.6 mPa·s
mass density ([1]; 318.15 K): 1343.7 ± 1.1 kg/m3
viscosity ([1]; 323.15 K): 36.5 ± 2.9 mPa·s
mass density ([1]; 323.15 K): 1340.1 ± 1.1 kg/m3
viscosity ([1]; 328.15 K): 30.46 ± 2.4 mPa·s
mass density ([1]; 328.15 K): 1336.4 ± 1.1 kg/m3
viscosity ([1]; 333.15 K): 25.73 ± 2.1 mPa·s
mass density ([1]; 333.15 K): 1332.8 ± 1.1 kg/m3
viscosity ([1]; 338.15 K): 21.98 ± 1.8 mPa·s
mass density ([1]; 338.15 K): 1329.2 ± 1.1 kg/m3
viscosity ([1]; 343.15 K): 18.95 ± 1.5 mPa·s
mass density ([1]; 343.15 K): 1325.5 ± 1.1 kg/m3

CCCCn1cc[n+](C)c1.F[B-](F)(F)F [1-butyl-3-methylimidazolium tetrafluoroborate]
viscosity ([1]; 293.15 K): 141.1 ± 12 mPa·s
mass density ([1]; 293.15 K): 1204 ± 1.1 kg/m3
viscosity ([1]; 298.15 K): 107.5 ± 8.7 mPa·s
mass density ([1]; 298.15 K): 1200.5 ± 1.1 kg/m3
viscosity ([1]; 303.15 K): 83.48 ± 6.7 mPa·s
mass density ([1]; 303.15 K): 1197 ± 1.1 kg/m3
viscosity ([1]; 308.15 K): 65.97 ± 5.3 mPa·s
mass density ([1]; 308.15 K): 1193.4 ± 1.1 kg/m3
viscosity ([1]; 313.15 K): 53 ± 4.2 mPa·s
mass density ([1]; 313.15 K): 1189.9 ± 1.1 kg/m3
viscosity ([1]; 318.15 K): 43.21 ± 3.5 mPa·s
mass density ([1]; 318.15 K): 1186.3 ± 1.1 kg/m3
viscosity ([1]; 323.15 K): 35.7 ± 2.9 mPa·s
mass density ([1]; 323.15 K): 1182.8 ± 1.1 kg/m3
viscosity ([1]; 328.15 K): 29.86 ± 2.4 mPa·s
mass density ([1]; 328.15 K): 1179.3 ± 1.1 kg/m3
viscosity ([1]; 333.15 K): 25.26 ± 2 mPa·s
mass density ([1]; 333.15 K): 1175.8 ± 1.1 kg/m3
viscosity ([1]; 338.15 K): 21.59 ± 1.7 mPa·s
mass density ([1]; 338.15 K): 1172.3 ± 1.1 kg/m3
viscosity ([1]; 343.15 K): 18.62 ± 1.5 mPa·s
mass density ([1]; 343.15 K): 1168.9 ± 1.1 kg/m3

CCCCn1cc[n+](C)c1.F[B-](F)(F)F [1-butyl-3-methylimidazolium tetrafluoroborate] + CCCC[n+]1ccccc1.F[B-](F)(F)F
viscosity ([2]; 293.15 K, x1 = 1): 141.1 ± 12 mPa·s
mass density ([2]; 293.15 K, x1 = 1): 1204 ± 1.1 kg/m3
viscosity ([2]; 298.15 K, x1 = 1): 107.5 ± 8.7 mPa·s
mass density ([2]; 298.15 K, x1 = 1): 1200.5 ± 1.1 kg/m3
viscosity ([2]; 303.15 K, x1 = 1): 83.48 ± 6.7 mPa·s
mass density ([2]; 303.15 K, x1 = 1): 1197 ± 1.1 kg/m3
viscosity ([2]; 308.15 K, x1 = 1): 65.97 ± 5.3 mPa·s
mass density ([2]; 308.15 K, x1 = 1): 1193.4 ± 1.1 kg/m3
viscosity ([2]; 313.15 K, x1 = 1): 53 ± 4.2 mPa·s
mass density ([2]; 313.15 K, x1 = 1): 1189.9 ± 1.1 kg/m3
viscosity ([2]; 318.15 K, x1 = 1): 43.21 ± 3.5 mPa·s
mass density ([2]; 318.15 K, x1 = 1): 1186.3 ± 1.1 kg/m3
viscosity ([2]; 323.15 K, x1 = 1): 35.7 ± 2.9 mPa·s
mass density ([2]; 323.15 K, x1 = 1): 1182.8 ± 1.1 kg/m3
viscosity ([2]; 328.15 K, x1 = 1): 29.86 ± 2.4 mPa·s
mass density ([2]; 328.15 K, x1 = 1): 1179.3 ± 1.1 kg/m3
viscosity ([2]; 333.15 K, x1 = 1): 25.26 ± 2 mPa·s
mass density ([2]; 333.15 K, x1 = 1): 1175.8 ± 1.1 kg/m3
viscosity ([2]; 338.15 K, x1 = 1): 21.59 ± 1.7 mPa·s
mass density ([2]; 338.15 K, x1 = 1): 1172.3 ± 1.1 kg/m3
viscosity ([2]; 343.15 K, x1 = 1): 18.62 ± 1.5 mPa·s
mass density ([2]; 343.15 K, x1 = 1): 1168.9 ± 1.1 kg/m3

CCCCn1cc[n+](C)c1.F[B-](F)(F)F [1-butyl-3-methylimidazolium tetrafluoroborate] + C[n+]1ccn(CCO)c1.F[B-](F)(F)F
viscosity ([2]; 293.15 K, x2 = 0): 141.1 ± 12 mPa·s
mass density ([2]; 293.15 K, x2 = 0): 1204 ± 1.1 kg/m3
viscosity ([2]; 298.15 K, x2 = 0): 107.5 ± 8.7 mPa·s
mass density ([2]; 298.15 K, x2 = 0): 1200.5 ± 1.1 kg/m3
viscosity ([2]; 303.15 K, x2 = 0): 83.48 ± 6.7 mPa·s
mass density ([2]; 303.15 K, x2 = 0): 1197 ± 1.1 kg/m3
viscosity ([2]; 308.15 K, x2 = 0): 65.97 ± 5.3 mPa·s
mass density ([2]; 308.15 K, x2 = 0): 1193.4 ± 1.1 kg/m3
viscosity ([2]; 313.15 K, x2 = 0): 53 ± 4.2 mPa·s
mass density ([2]; 313.15 K, x2 = 0): 1189.9 ± 1.1 kg/m3
viscosity ([2]; 318.15 K, x2 = 0): 43.21 ± 3.5 mPa·s
mass density ([2]; 318.15 K, x2 = 0): 1186.3 ± 1.1 kg/m3
viscosity ([2]; 323.15 K, x2 = 0): 35.7 ± 2.9 mPa·s
mass density ([2]; 323.15 K, x2 = 0): 1182.8 ± 1.1 kg/m3
viscosity ([2]; 328.15 K, x2 = 0): 29.86 ± 2.4 mPa·s
mass density ([2]; 328.15 K, x2 = 0): 1179.3 ± 1.1 kg/m3
viscosity ([2]; 333.15 K, x2 = 0): 25.26 ± 2 mPa·s
mass density ([2]; 333.15 K, x2 = 0): 1175.8 ± 1.1 kg/m3
viscosity ([2]; 338.15 K, x2 = 0): 21.59 ± 1.7 mPa·s
mass density ([2]; 338.15 K, x2 = 0): 1172.3 ± 1.1 kg/m3
viscosity ([2]; 343.15 K, x2 = 0): 18.62 ± 1.5 mPa·s
mass density ([2]; 343.15 K, x2 = 0): 1168.9 ± 1.1 kg/m3

CCCC[n+]1ccccc1.F[B-](F)(F)F [1-butylpyridinium tetrafluoroborate]
viscosity ([1]; 293.15 K): 228.9 ± 19 mPa·s
mass density ([1]; 293.15 K): 1216.6 ± 1.1 kg/m3
viscosity ([1]; 298.15 K): 166.9 ± 14 mPa·s
mass density ([1]; 298.15 K): 1213.1 ± 1.1 kg/m3
viscosity ([1]; 303.15 K): 124.5 ± 10 mPa·s
mass density ([1]; 303.15 K): 1209.6 ± 1.1 kg/m3
viscosity ([1]; 308.15 K): 94.97 ± 7.6 mPa·s
mass density ([1]; 308.15 K): 1206.2 ± 1.1 kg/m3
viscosity ([1]; 313.15 K): 73.94 ± 5.9 mPa·s
mass density ([1]; 313.15 K): 1202.8 ± 1.1 kg/m3
viscosity ([1]; 318.15 K): 58.64 ± 4.7 mPa·s
mass density ([1]; 318.15 K): 1199.4 ± 1.1 kg/m3
viscosity ([1]; 323.15 K): 47.29 ± 3.8 mPa·s
mass density ([1]; 323.15 K): 1196 ± 1.1 kg/m3
viscosity ([1]; 328.15 K): 38.71 ± 3.1 mPa·s
mass density ([1]; 328.15 K): 1192.6 ± 1.1 kg/m3
viscosity ([1]; 333.15 K): 32.12 ± 2.6 mPa·s
mass density ([1]; 333.15 K): 1189.2 ± 1.1 kg/m3
viscosity ([1]; 338.15 K): 26.98 ± 2.2 mPa·s
mass density ([1]; 338.15 K): 1185.8 ± 1.1 kg/m3
viscosity ([1]; 343.15 K): 22.97 ± 1.8 mPa·s
mass density ([1]; 343.15 K): 1182.5 ± 1.1 kg/m3

CCCC[n+]1ccccc1.F[B-](F)(F)F [1-butylpyridinium tetrafluoroborate] + C[n+]1ccn(CCO)c1.F[B-](F)(F)F
viscosity ([2]; 293.15 K, x2 = 0): 228.9 ± 19 mPa·s
mass density ([2]; 293.15 K, x2 = 0): 1216.6 ± 1.1 kg/m3
viscosity ([2]; 298.15 K, x2 = 0): 166.9 ± 14 mPa·s
mass density ([2]; 298.15 K, x2 = 0): 1213.1 ± 1.1 kg/m3
viscosity ([2]; 303.15 K, x2 = 0): 124.5 ± 10 mPa·s
mass density ([2]; 303.15 K, x2 = 0): 1209.6 ± 1.1 kg/m3
viscosity ([2]; 308.15 K, x2 = 0): 94.97 ± 7.6 mPa·s
mass density ([2]; 308.15 K, x2 = 0): 1206.2 ± 1.1 kg/m3
viscosity ([2]; 313.15 K, x2 = 0): 73.94 ± 5.9 mPa·s
mass density ([2]; 313.15 K, x2 = 0): 1202.8 ± 1.1 kg/m3
viscosity ([2]; 318.15 K, x2 = 0): 58.64 ± 4.7 mPa·s
mass density ([2]; 318.15 K, x2 = 0): 1199.4 ± 1.1 kg/m3
viscosity ([2]; 323.15 K, x2 = 0): 47.29 ± 3.8 mPa·s
mass density ([2]; 323.15 K, x2 = 0): 1196 ± 1.1 kg/m3
viscosity ([2]; 328.15 K, x2 = 0): 38.71 ± 3.1 mPa·s
mass density ([2]; 328.15 K, x2 = 0): 1192.6 ± 1.1 kg/m3
viscosity ([2]; 333.15 K, x2 = 0): 32.12 ± 2.6 mPa·s
mass density ([2]; 333.15 K, x2 = 0): 1189.2 ± 1.1 kg/m3
viscosity ([2]; 338.15 K, x2 = 0): 26.98 ± 2.2 mPa·s
mass density ([2]; 338.15 K, x2 = 0): 1185.8 ± 1.1 kg/m3
viscosity ([2]; 343.15 K, x2 = 0): 22.97 ± 1.8 mPa·s
mass density ([2]; 343.15 K, x2 = 0): 1182.5 ± 1.1 kg/m3
